# Assay results reported in patent publication US10723764B2, “Anti-microbial peptides and methods of use thereof” (priority 2011, dated 2020).
# Like-named read-outs stand apart in the source and are kept apart here. Where a SMILES comes first, the peptide text is derived from it. [ ]: non-standard residue; d: D form. Phe(4-CF3) = N[C@@H](Cc1ccc(C(F)(F)F)cc1)C(=O)O; Bip = N[C@@H](Cc1ccc(-c2ccccc2)cc1)C(=O)O; 2Nal = N[C@@H](Cc1ccc2ccccc2c1)C(=O)O
# Columns and labels:
# [1] = test system: methicillin-resistant Staphylococcus aureus USA300 LAC; conditions: for MIC (μM) SA: S. aureus USA300 LAC, Table 10; for S. aureus USA 300 MIC: Table 8
# Escherichia coli K12 = conditions: Table 8
# A. baumannii B2367-12 = format: cell-based, Acinetobacter baumanii
# Experimental: (§1) The antibacterial activities of the peptides were determined using the standard broth microdilution method (Mishra et al. (2012) J. Am. Chem. Soc., 134:12426-12429; Wang et al. (2005) Biol. Chem., 280:5803-5811). Briefly, the bacterial culture was treated with a series of peptide solutions, each with two-fold dilution. After overnight incubation at 37° C., the microplate was read on a ChroMate® 4300 Microplate Reader at 630 nm (GMI, Ramsey, Minn.).
# human erythrocytes = conditions: for HL50 (μM), peptide concentration that causes 50% lysis of human erythrocytes: Table 10; for hemolysis: human, 160 µM
# Experimental: (§2) Peptide hemolysis was assayed using an established protocol (Malmsten et al. (2011) PLoS One 6:e16400). In brief, fresh blood, obtained from the UNMC Blood Bank, was washed three times with PBS buffer and made into a 5% solution. To 90 μL of this solution, 10 μL of a peptide solution was added and incubated at 37° C. for one hour. After centrifugation at 13,000 rpm, aliquots of the supernatant were transferred to a fresh 96 well microplate. The absorbance of the solutions was measured at 545 nm to detect the amount of hemoglobin released. The percent lysis was calculated by assuming 100% release when treated with 2% Triton X-100 and no lysis (0%) when treated with PBS buffer. HL50 was the peptide concentration that caused 50% lysis of human erythrocytes. The cell selectivity (CS) indexes were calculated as the ratio of HL50 to the MIC of the peptide against S. aureus USA300.
# (§3) The hemolytic effects of the six peptides were also compared on human red blood cells (hRBC) using an established protocol (Malmsten et al. (2011) PLoS One 6:e16400). […] A high TI indicates good cell selectivity.
# (§4) Peptide hemolysis was assayed using an established protocol (Menousek et al. (2012) Int. J. Antimicrob. Agents 39:402-406; Malmsten et al. (2011) PLoS One 6:e16400). Briefly, blood cells were washed three times with phosphate-buffered saline (PBS) and were diluted to a 5% solution. Following peptide treatment, incubation at 37° C. for 1 hour and centrifugation at 13,000 rpm, aliquots of the supernatant were transferred to a fresh 96-well microplate. To assess peptide cytotoxicity, the amount of hemoglobin released was measured at 545 nm. Percent lysis was calculated by assuming 100% release when human blood cells were treated with 2% Triton X-100 and 0% release when they were incubated with PBS buffer.
# [2] = human, hemolysis, at 160 μM, human red blood cells
# Experimental: as §2, §3, §4
# E. faecium ATCC51559 = format: cell-based, Enterococcus faecium
# Experimental: as §1
# [3] = test system: Pseudomonas aeruginosa PAO1; format: cell-based
# Experimental: The bacterial strains used in the study are Bacillus subtilis 168, methicillin-resistant Staphylococcus aureus USA300 LAC (Gram-positive), Escherichia coli K12, and Pseudomonas aeruginosa PAO1 (Gram negative). The antibacterial activities of the peptides were determined using the standard broth microdilution method (Wang et al. (2005) J. Biol. Chem., 280:5803-5811). In brief, the bacterial culture (90 μL) was treated with a series of peptide solutions (10 μL), each with two-fold dilution. After overnight incubation at 37° C., the microplate was read on a ChroMate® 4300 Microplate Reader at 630 nm (GMI, Ramsey, Minn.).
# For the initial screen, antimicrobial activities of these peptides against S. aureus and E. coli were evaluated using the standard broth microdilution protocol (Wang, G. (2008) J. Biol. Chem., 283:32637-43). […] Subsequently, the in vitro activity of these six peptides was evaluated against Bacillus subtilis and Pseudomonas aeruginosa (Table 6). […] While maculatin 1.3 is active against two Gram-positive but not two Gram-negative bacterial strains, DASamP1 is species-specific since it active only against S. aureus. The finding that ascaphin-8, […], and piscidin 1 are wide-spectrum AMPs agrees with the literature (Apponyi et al. (2004) Peptides 25:1035-1054; Conlon et al. (2004) Biochem. Biophys. Res. Commun., 320:170-175; Silphaduang et al. (2001) Nature 414:268-269; Souza et al. (2005) J. Immunol., 186:6585-6596). For lycotoxin I, it was previously found to active against Gram-negative E. coli and yeast (Yan et al. (1998) J. Biol. Chem., 273:2059-2066).
# as §1
# E. cloacae B2366-12 = format: cell-based
# Experimental: as §1
# ESKAPE pathogens = format: cell-based; conditions: most of the ESKAPE strains
# Experimental: as §1
# A rational design was conducted on the basis of the 3D structure of GF-17d3. […] The noncoherent packing of the GF-17d3 side chains caused a hydrophobic defect in the structure (FIGS. 8C and 8D, arrow), leading to reduced hydrophobicity. Accordingly, it was hypothesized that the antimicrobial activity of this peptide 17F2 (sequence GX1KRLVQRLKDX2LRNLV (SEQ ID NO: 58), Table 9) could be enhanced by filling in the hydrophobic cavity (FIG. 8D, arrow) with a larger hydrophobic side chain. The antimicrobial activities of these peptide analogues were evaluated using the standard microdilution assays (Mishra et al. (2012) J. Am. Chem. Soc., 134:12426-12429), and the minimal inhibitory concentrations (MIC) against a panel of the ESKAPE pathogens are provided in Table 10. […] To compare the two sites, these two substitutions at positions X1 and X2 were swapped to obtain 17Naph-mF. […] In addition, biphenylalanines were incorporated at position X1 alone or at both X1 and X2 of the 17F2 template. […] The killing abilities of these peptides are essentially proportional to their MIC values as well as retention times (a measure of hydrophobicity) on a reverse-phase HPLC column (Mishra et al. (2012) J. Am. Chem. Soc., 134:12426-12429).
Structure (SMILES),MIC (μM) SA [1] [µM],S. aureus USA 300 MIC [1] [µM],E. coli K12 MIC (Escherichia coli K12) [µM],MIC (μM) AB (A. baumannii B2367-12) [µM],"HL50 (μM), peptide concentration that causes 50% lysis of human erythrocytes (human erythrocytes) [µM]",hemolysis (human erythrocytes) [%],hemolysis at 160 µM [2] [%],MIC (μM) EF (E. faecium ATCC51559; ATCC51559) [µM],MIC (μM) PA [3] [µM],MIC (μM) EC (E. cloacae B2366-12; B2366-12) [µM],MICs against most of the ESKAPE strains (ESKAPE pathogens) [µM],MIC (μM) EC (E. cloacae B2366-12; E. cloacae B2366-12) [µM],MIC (μM) EF (E. faecium ATCC51559; E. faecium ATCC51559) [µM]
"CC(C)C[C@H](NC(=O)[C@H](CC(N)=O)NC(=O)[C@H](CCCNC(=N)N)NC(=O)[C@@H](CC(C)C)NC(=O)[C@H](Cc1ccccc1)NC(=O)[C@H](CC(=O)O)NC(=O)[C@H](CCCCN)NC(=O)[C@@H](CC(C)C)NC(=O)[C@H](CCCNC(=N)N)NC(=O)[C@H](CCC(N)=O)NC(=O)[C@@H](NC(=O)[C@@H](CC(C)C)NC(=O)[C@H](CCCNC(=N)N)NC(=O)[C@H](CCCCN)NC(=O)[C@H](Cc1ccc(C(F)(F)F)cc1)NC(=O)CN)C(C)C)C(=O)N[C@H](C(N)=O)C(C)C [B128A, GX1KRLVQRLKDX2LRNLV-amide] (H-G[Phe(4-CF3)]KR[dL]VQR[dL]KDF[dL]RNLV-NH2)",25,40,5,3.1 to 6.2,>900,<5,3 to 5,25 to 50,25,25,25 to 50,–,–
"CC(C)C[C@H](NC(=O)[C@H](CC(N)=O)NC(=O)[C@H](CCCNC(=N)N)NC(=O)[C@@H](CC(C)C)NC(=O)[C@H](Cc1ccc(C(F)(F)F)cc1)NC(=O)[C@H](CC(=O)O)NC(=O)[C@H](CCCCN)NC(=O)[C@@H](CC(C)C)NC(=O)[C@H](CCCNC(=N)N)NC(=O)[C@H](CCC(N)=O)NC(=O)[C@@H](NC(=O)[C@@H](CC(C)C)NC(=O)[C@H](CCCNC(=N)N)NC(=O)[C@H](CCCCN)NC(=O)[C@H](Cc1ccc2ccccc2c1)NC(=O)CN)C(C)C)C(=O)N[C@H](C(N)=O)C(C)C [17Naph-mF, GX1KRLVQRLKDX2LRNLV] (H-G[2Nal]KR[dL]VQR[dL]KD[Phe(4-CF3)][dL]RNLV-NH2)",6.2,–,–,3.1,950,–,–,3.1,6.2 to 12.5,–,–,6.2 to 12.5,–
"CC(C)C[C@H](NC(=O)[C@H](CC(N)=O)NC(=O)[C@H](CCCNC(=N)N)NC(=O)[C@@H](CC(C)C)NC(=O)[C@H](Cc1ccccc1)NC(=O)[C@H](CC(=O)O)NC(=O)[C@H](CCCCN)NC(=O)[C@@H](CC(C)C)NC(=O)[C@H](CCCNC(=N)N)NC(=O)[C@H](CCC(N)=O)NC(=O)[C@@H](NC(=O)[C@@H](CC(C)C)NC(=O)[C@H](CCCNC(=N)N)NC(=O)[C@H](CCCCN)NC(=O)[C@H](Cc1ccc(-c2ccccc2)cc1)NC(=O)CN)C(C)C)C(=O)N[C@H](C(N)=O)C(C)C [C128A, GX1KRLVQRLKDX2LRNLV-amide] (H-G[Bip]KR[dL]VQR[dL]KDF[dL]RNLV-NH2)",12.5,40,5,3.1,>900,<5,3 to 5,–,12.5,–,–,12.5,12.5
